According to ChEMBL document CHEMBL3885881, “DrugMatrix”:

Species on record: Rattus norvegicus
Assay: DrugMatrix - Regimen: Daily Repeat
Type: toxicity, organism-based, Sprague-Dawley
Set-up: regimen Daily Repeat, gender Male, age 6-8 weeks
Settings: in vivo, po, route oral GAVAGE, […]; for ABSOLUTE BASOPHIL / ABSOLUTE EOSINOPHIL / ABSOLUTE LYMPHOCYTE / ABSOLUTE MONOCYTE / ABSOLUTE SEGMENTED NEUTROPHIL / BASOPHIL / EOSINOPHIL / ERYTHROCYTE COUNT / HEMATOCRIT / HEMOGLOBIN / LEUKOCYTE COUNT / LYMPHOCYTE / MEAN CORPUSCULAR HEMOGLOBIN / MEAN CORPUSCULAR HEMOGLOBIN CONCENTRATION / MEAN CORPUSCULAR VOLUME / MONOCYTE / NEUTROPHIL / NUCLEATED RED BLOOD CELLS / PLATELET COUNT: tissue Blood; for ALANINE AMINOTRANSFERASE / ALBUMIN / ALKALINE PHOSPHATASE / ASPARTATE AMINOTRANSFERASE / BLOOD UREA NITROGEN / CARBON DIOXIDE / CHLORIDE / CHOLESTEROL / CREATINE PHOSPHOKINASE / CREATININE / GLUCOSE / LACTATE DEHYDROGENASE / LIPASE / PHOSPHORUS / POTASSIUM / SODIUM / TOTAL BILIRUBIN / TOTAL PROTEIN / URIC ACID: tissue Plasma
[1] = 0 mg/kg, 72 h, dose level Control, time 3 day
[2] = 0 mg/kg, 120 h, dose level Control, time 5 day
[3] = 1 mg/kg, 72 h, dose level Low, time 3 day

Q: Which results are given for `CCOC(=O)C1=C(C)NC(C)=C(C(=O)OCC)C1c1ccccc1/C=C/C(=O)OC(C)(C)C` [LACIDIPINE]?
A: ABSOLUTE BASOPHIL [1]: 0 CELLS/uL; ABSOLUTE EOSINOPHIL [1]: 13.67 CELLS/uL; ABSOLUTE LYMPHOCYTE [1]: 10069.5 CELLS/uL; ABSOLUTE MONOCYTE [1]: 50 CELLS/uL; ABSOLUTE SEGMENTED NEUTROPHIL [1]: 516.83 CELLS/uL; BASOPHIL [1]: 0%; EOSINOPHIL [1]: 0.17%; ERYTHROCYTE COUNT [1]: 5.44 x10E6/uL; HEMATOCRIT [1]: 33.88%; HEMOGLOBIN [1]: 13.23 G/DL; LEUKOCYTE COUNT [1]: 10.65 x10E3/uL; LYMPHOCYTE [1]: 94.67%; MEAN CORPUSCULAR HEMOGLOBIN [1]: 24.37 pg; MEAN CORPUSCULAR HEMOGLOBIN CONCENTRATION [1]: 39.05 G/DL; MEAN CORPUSCULAR VOLUME [1]: 62.38 fL; MONOCYTE [1]: 0.67%; NEUTROPHIL [1]: 4.5%; NUCLEATED RED BLOOD CELLS [1]: 0.33 /100WBC; PLATELET COUNT [1]: 414.5 x10E3/uL; ALANINE AMINOTRANSFERASE [1]: 72 u/L; ALBUMIN [1]: 3.75 G/DL; ALKALINE PHOSPHATASE [1]: 375 u/L; ASPARTATE AMINOTRANSFERASE [1]: 87.5 u/L; BLOOD UREA NITROGEN [1]: 14 mg/dL; CARBON DIOXIDE [1]: 27.5 mmol/L; CHLORIDE [1]: 95.83 MEQ/L; CHOLESTEROL [1]: 68.5 mg/dL; CREATINE PHOSPHOKINASE [1]: 284.33 u/L; CREATININE [1]: 0.16 mg/dL; GLUCOSE [1]: 156.67 mg/dL; LACTATE DEHYDROGENASE [1]: 101.83 u/L; LIPASE [1]: 9.67 u/L; PHOSPHORUS [1]: 10.33 mg/dL; POTASSIUM [1]: 5.22 MEQ/L; SODIUM [1]: 137.67 MEQ/L; TOTAL BILIRUBIN [1]: 0.13 mg/dL; TOTAL PROTEIN [1]: 5.43 G/DL; URIC ACID [1]: 0.8 mg/dL; ABSOLUTE BASOPHIL [2]: 0 CELLS/uL; ABSOLUTE EOSINOPHIL [2]: 20.67 CELLS/uL; ABSOLUTE LYMPHOCYTE [2]: 11518.33 CELLS/uL; ABSOLUTE MONOCYTE [2]: 47 CELLS/uL; ABSOLUTE SEGMENTED NEUTROPHIL [2]: 614 CELLS/uL; BASOPHIL [2]: 0%; EOSINOPHIL [2]: 0.17%; ERYTHROCYTE COUNT [2]: 5.61 x10E6/uL; HEMATOCRIT [2]: 34.25%; HEMOGLOBIN [2]: 13.38 G/DL; LEUKOCYTE COUNT [2]: 12.2 x10E3/uL; LYMPHOCYTE [2]: 94.33%; MEAN CORPUSCULAR HEMOGLOBIN [2]: 23.83 pg; MEAN CORPUSCULAR HEMOGLOBIN CONCENTRATION [2]: 39.08 G/DL; MEAN CORPUSCULAR VOLUME [2]: 61.03 fL; MONOCYTE [2]: 0.33%; NEUTROPHIL [2]: 5.17%; NUCLEATED RED BLOOD CELLS [2]: 0 /100WBC; PLATELET COUNT [2]: 941.83 x10E3/uL; ALANINE AMINOTRANSFERASE [2]: 68.83 u/L; ALBUMIN [2]: 4.12 G/DL; ALKALINE PHOSPHATASE [2]: 492.67 u/L; ASPARTATE AMINOTRANSFERASE [2]: 83.33 u/L; BLOOD UREA NITROGEN [2]: 14 mg/dL; CARBON DIOXIDE [2]: 37 mmol/L; CHLORIDE [2]: 98.67 MEQ/L; CHOLESTEROL [2]: 56.5 mg/dL; CREATINE PHOSPHOKINASE [2]: 167.33 u/L; CREATININE [2]: 0.17 mg/dL; GLUCOSE [2]: 157.5 mg/dL; LACTATE DEHYDROGENASE [2]: 104.83 u/L; LIPASE [2]: 10 u/L; PHOSPHORUS [2]: 10.43 mg/dL; POTASSIUM [2]: 5.46 MEQ/L; SODIUM [2]: 143.87 MEQ/L; TOTAL BILIRUBIN [2]: 0.17 mg/dL; TOTAL PROTEIN [2]: 5.72 G/DL; URIC ACID [2]: 0.85 mg/dL; ABSOLUTE BASOPHIL [3]: 0 CELLS/uL; ABSOLUTE EOSINOPHIL [3]: 98 CELLS/uL; ABSOLUTE LYMPHOCYTE [3]: 10170.33 CELLS/uL; ABSOLUTE MONOCYTE [3]: 49.33 CELLS/uL; ABSOLUTE SEGMENTED NEUTROPHIL [3]: 815.67 CELLS/uL; BASOPHIL [3]: 0%; EOSINOPHIL [3]: 0.67%; ERYTHROCYTE COUNT [3]: 5.08 x10E6/uL; HEMATOCRIT [3]: 32.6%; HEMOGLOBIN [3]: 13 G/DL; LEUKOCYTE COUNT [3]: 11.13 x10E3/uL; LYMPHOCYTE [3]: 91%; MEAN CORPUSCULAR HEMOGLOBIN [3]: 25.63 pg; MEAN CORPUSCULAR HEMOGLOBIN CONCENTRATION [3]: 39.9 G/DL; MEAN CORPUSCULAR VOLUME [3]: 64.17 fL; MONOCYTE [3]: 0.67%; NEUTROPHIL [3]: 7.67%; NUCLEATED RED BLOOD CELLS [3]: 0 /100WBC; PLATELET COUNT [3]: 968 x10E3/uL; ALANINE AMINOTRANSFERASE [3]: 76 u/L; ALBUMIN [3]: 3.93 G/DL; ALKALINE PHOSPHATASE [3]: 408.67 u/L; ASPARTATE AMINOTRANSFERASE [3]: 89 u/L; BLOOD UREA NITROGEN [3]: 12.33 mg/dL; CARBON DIOXIDE [3]: 25 mmol/L; CHLORIDE [3]: 96.67 MEQ/L; CHOLESTEROL [3]: 78 mg/dL; CREATINE PHOSPHOKINASE [3]: 356.67 u/L; CREATININE [3]: 0.21 mg/dL; GLUCOSE [3]: 154.33 mg/dL; LACTATE DEHYDROGENASE [3]: 122.67 u/L; LIPASE [3]: 12 u/L; PHOSPHORUS [3]: 9.57 mg/dL; POTASSIUM [3]: 5.36 MEQ/L; SODIUM [3]: 139.33 MEQ/L; TOTAL BILIRUBIN [3]: 0.13 mg/dL; TOTAL PROTEIN [3]: 5.4 G/DL; URIC ACID [3]: 0.5 mg/dL
